Test results published in ChEMBL document CHEMBL3414474, “Design and synthesis of piperidine derivatives as novel human heat shock protein 70 inhibitors for the treatment of drug-resistant tumors” (Eur J Med Chem, 2015).
Calls of active or inactive are those of the source. No cut-off for these calls is given here.

How the values were obtained:
[1] = Growth inhibition of human BT474 cells incubated for 72 hrs by ATP detection based luminescent assay; assay type: functional, cell-based; settings: BT-474, 72 h
COLO 205 = test: Growth inhibition of human COLO205 cells at 0.016 to 4 uM incubated for 72 hrs by ATP detection based luminescent assay; assay type: functional, cell-based
MIA PaCa-2 = test: Growth inhibition of human MIAPaCa2 cells at 0.016 to 4 uM incubated for 72 hrs by ATP detection based luminescent assay; assay type: functional, cell-based
Huh-7 = test: Growth inhibition of human HuH7 cells at 0.016 to 4 uM incubated for 72 hrs by ATP detection based luminescent assay; assay type: functional, cell-based
BGC-823 = test: Growth inhibition of human BGC823 cells at 0.016 to 4 uM incubated for 72 hrs by ATP detection based luminescent assay; assay type: functional, cell-based
Homo sapiens = species on record: Homo sapiens; test: Inhibition of HSP70 (unknown origin) at 200 uM pre-incubated for 30 mins followed by ATP addiction and measured after 3 hrs by malachite green reagent based colorimetric assay
NCI-H460 = test: Growth inhibition of human H460 cells at 0.016 to 4 uM incubated for 72 hrs by ATP detection based luminescent assay; assay type: functional, cell-based
A549 = test: Growth inhibition of human A549 cells at 0.016 to 4 uM incubated for 72 hrs by ATP detection based luminescent assay; assay type: functional, cell-based
NCI-N87 = test: Growth inhibition of human NCI-N87 cells at 0.016 to 4 uM incubated for 72 hrs by ATP detection based luminescent assay; assay type: functional, cell-based
ASPC1 = test: Growth inhibition of human AsPC1 cells at 0.016 to 4 uM incubated for 72 hrs by ATP detection based luminescent assay; assay type: functional, cell-based
[2] = Growth inhibition of human BT/LapR1.0 cells incubated for 72 hrs by ATP detection based luminescent assay; assay type: functional
MRC5 = test: Growth inhibition of human MRC5 cells at 0.016 to 4 uM incubated for 72 hrs by ATP detection based luminescent assay; assay type: cell-based; settings: mrc5, 72 h
HepG2 = test: Growth inhibition of human HepG2 cells at 0.016 to 4 uM incubated for 72 hrs by ATP detection based luminescent assay; assay type: functional, cell-based
HT-29 = test: Growth inhibition of human HT-29 cells at 0.016 to 4 uM incubated for 72 hrs by ATP detection based luminescent assay; assay type: functional, cell-based
[3] = Growth inhibition of human WI38 cells at 0.016 to 4 uM incubated for 72 hrs by ATP detection based luminescent assay; assay type: cell-based; settings: wi-38, 72 h
[4] = Growth inhibition of human SKBR3 cells at 5 uM incubated for 72 hrs by ATP detection based luminescent assay; assay type: functional; settings: SK-BR-3, 72 h, read-out: GI
[5] = Growth inhibition of human BT/LapR1.0 cells at 5 uM incubated for 72 hrs by ATP detection based luminescent assay; assay type: functional; settings: read-out: GI
MDA-MB-453 = test: Growth inhibition of human MDA-MB-453 cells at 5 uM incubated for 72 hrs by ATP detection based luminescent assay; assay type: functional; settings: MDA-MB-453, 72 h, read-out: GI
MDA-MB-361 = test: Growth inhibition of human MDA-MB-361 cells at 5 uM incubated for 72 hrs by ATP detection based luminescent assay; assay type: functional; settings: MDA-MB-361, 72 h, read-out: GI
[6] = Growth inhibition of human SK/LapR1.0 cells at 5 uM incubated for 72 hrs by ATP detection based luminescent assay; assay type: functional; settings: read-out: GI
[7] = Growth inhibition of human BT474 cells at 5 uM incubated for 72 hrs by ATP detection based luminescent assay; assay type: functional; settings: BT-474, 72 h, read-out: GI
Mus musculus [8] = test: Acute toxicity in male KM mouse assessed as mouse mortality at 1080 mg/kg dosed as single oral gavage measured during day 1 to day 14 post dose; assay type: organism-based; design: dose 1080 mg/kg, route oral; settings: in vivo
Mus musculus [9] = test: Acute toxicity in male KM mouse assessed as mouse mortality at 1555 mg/kg dosed as single oral gavage measured after 5 mins during day 1 to day 14 post dose; assay type: organism-based; design: dose 1555 mg/kg, route oral; settings: in vivo
Mus musculus [10] = test: Acute toxicity in female KM mouse assessed as induction of organ abnormalities mortality at 520 to 1555 mg/kg dosed as single oral gavage measured during day 1 to day 14 post dose; assay type: organism-based; design: dose 520-1555 mg/kg, route oral; settings: in vivo
Mus musculus [11] = test: Acute toxicity in female KM mouse assessed as mouse mortality at 520 mg/kg dosed as single oral gavage measured during day 1 to day 14 post dose; assay type: organism-based; design: dose 520 mg/kg, route oral; settings: in vivo
Mus musculus [12] = test: Acute toxicity in male KM mouse assessed as induction of organ abnormalities mortality at 520 to 1555 mg/kg dosed as single oral gavage measured during day 1 to day 14 post dose; assay type: organism-based; design: dose 520-1555 mg/kg, route oral; settings: in vivo
Mus musculus [13] = test: Acute toxicity in female KM mouse assessed as mouse mortality at 625 mg/kg dosed as single oral gavage measured during day 1 to day 14 post dose; assay type: organism-based; design: dose 625 mg/kg, route oral; settings: in vivo
Mus musculus [14] = test: Acute toxicity in male KM mouse assessed as mouse mortality at 520 mg/kg dosed as single oral gavage measured during day 1 to day 14 post dose; assay type: organism-based; design: dose 520 mg/kg, route oral; settings: in vivo
Mus musculus [15] = test: Acute toxicity in female KM mouse assessed as mouse mortality at 1296 mg/kg dosed as single oral gavage measured during day 1 to day 14 post dose; assay type: organism-based; design: dose 1296 mg/kg, route oral; settings: in vivo
Mus musculus [16] = test: Acute toxicity in female KM mouse assessed as mouse mortality at 1555 mg/kg dosed as single oral gavage measured after 5 mins during day 1 to day 14 post dose; assay type: organism-based; design: dose 1555 mg/kg, route oral; settings: in vivo
[17] = Binding affinity to human HSP70 at 25 degC by surface plasmon resonance assay

SMILES	IC50 [1]	growth inhibition (GI) (COLO 205)	growth inhibition (GI) (MIA PaCa-2)	growth inhibition (GI) (Huh-7)	growth inhibition (GI) (BGC-823)	inhibition (Homo sapiens)	growth inhibition (GI) (NCI-H460)	growth inhibition (GI) (A549)	growth inhibition (GI) (NCI-N87)	growth inhibition (GI) (ASPC1)	IC50 [2]	growth inhibition (GI) (MRC5)	growth inhibition (GI) (HepG2)	growth inhibition (GI) (HT-29)	growth inhibition (GI) [3]	inhibition of growth at 5 µM [4]	inhibition of growth at 5 µM [5]	inhibition of growth at 5 µM (MDA-MB-453)	inhibition of growth at 5 µM (MDA-MB-361)	inhibition of growth at 5 µM [6]	also measured
CSc1nccc(N2CCC(N(C)Cc3ccc(Cl)cc3Cl)CC2)n1	1.62 µM	Active	Active	Active	Active	8.28%	Active	Active	Active	Active	1.68 µM	Non-toxic	Active	Active	Non-toxic						
CSc1nccc(N2CCC(N(C)Cc3c(Cl)cccc3Cl)CC2)n1	0.78 µM	Active	Active	Active	Active	12.8%	Active	Active	Active	Active	0.7 µM	Non-toxic	Active	Active	Non-toxic	85.9%	70%	79.2%	53.2%	71%	inhibition of growth at 5 µM [7]: 73.1%
CSc1nccc(N2CCC(N(C)Cc3ccc(C#N)cc3)CC2)n1	1.41 µM	Active	Active	Active	Active	8.14%	Active	Active	Active	Active	1.47 µM	Non-toxic	Active	Active	Non-toxic	83.4%	76.2%	82.4%	46.9%	86.1%	Activity (Mus musculus [8]): Toxic; Activity (Mus musculus [9]): Toxic; Activity (Mus musculus [10]): Non-toxic; Activity (Mus musculus [11]): Non-toxic; Activity (Mus musculus [12]): Non-toxic; Activity (Mus musculus [13]): Non-toxic; Activity (Mus musculus [14]): Non-toxic; Activity (Mus musculus [15]): Toxic; Activity (Mus musculus [16]): Toxic; Kd [17]: 0.246 µM; inhibition of growth at 5 µM [7]: 75.5%
CSc1nccc(N2CCC(N(C)Cc3ccccc3Cl)CC2)n1	1.99 µM	Active	Active	Active	Active	11.6%	Active	Active	Active	Active	1.7 µM	Non-toxic	Active	Active	Non-toxic	22.2%	17.5%	45.3%	36.2%	34.2%	inhibition of growth at 5 µM [7]: 21.3%
CSc1nccc(N2CCC(N(C)Cc3c(F)cccc3Cl)CC2)n1	1.04 µM	Active	Active	Active	Active	20.4%	Active	Active	Active	Active	0.94 µM	Non-toxic	Active	Active	Non-toxic						
